For 30 compounds, activity results are on record in patent publication US20130172345A1, “1-ACYL-4-(PHENOXY, BENZYLOXY, OR PHENYLAMINO)-1,2,3,4-TETRAHYDROQUINOLINE DERIVATIVES” (KOWA COMPANY, LTD., priority 2007, published 2013).

In test [1] the test system is HepG2 cells originating from human liver cancer. Put plainly: EPO production in HepG2 cells (EPO ELISA of culture supernatant, 4% oxygen, 48 hrs). The test is classed as cell-based. The settings on record: test compound 3 μM, oxygen 4%, non-stimulated state = 100%, read-out: EPO production amount, % of control (3 μM). How it is done: HepG2 cells originating from human liver cancer were seeded at a density of 1×10^4 cells per well on a 24-well plate by using minimum essential medium (MEM, manufactured by Sigma) comprising 10% bovine fetal serum. Next day, the medium was exchanged with Dulbecco's modified eagle medium (DMEM, manufactured by Sigma) comprising 10% bovine fetal serum lacking phenol red. Then, the test compound dissolved in DMSO was added thereto to obtain the final concentration of 3 μM or 10 μM while having 400 μl of the medium per well. The cells were incubated for 48 hrs in a CO2 incubator which had been adjusted to have oxygen concentration of 4%, followed by collecting the culture supernatant. The EPO concentration in the culture supernatant was immediately measured by using EPO ELISA kit (manufactured by Roche Diagnostics K.K.). Specific procedures were carried out according to the manufacturer's protocol included in the kit.
When EPO production amount in non-stimulated state, i.e., without addition of any compound, was 100%, the EPO production amount induced by each compound was calculated (% of control).
In general terms: ELISA stands for enzyme-linked immunosorbent assay.

The test system of test [2] is K562 cells, human proerythroblast cells. Put plainly: Hemoglobin production in K562 cells (fluorescence of the porphyrin ring). The test is classed as cell-based. The settings on record: 144 h, test compound 6 μM, 3+3 days, non-stimulated state = 100%, read-out: production amount of hemoglobin, % of control (6 μM). How it is done:
K562 cells (obtained from ATCC), which are human proerythroblast cells, were seeded at a density of 1×10^5 cells/1 mL on a 24-well plate by using complete medium (RPMI-1640 medium comprising 10% bovine fetal serum). After adding the test compound having 1000× concentration (1 μL), the cells were incubated for three days in a CO2 incubator (37° C., 5% CO2). After exchanging the medium, the cells were further incubated for three days. Then, the cells were collected and counted. After adjusting them to have 3×10^5 cells, the amount of hemoglobin produced in the cells was determined by measuring fluorescence of the porphyrin ring. Specifically, the cells which had been collected by centrifugation were suspended in 2 M oxalic acid solution (500 μL) and boiled for 30 minutes under heating. After cooling the cells, the fluorescence intensity was measured by Fluorescence micro plate reader (Spectra MAX GeminiEM, manufactured by Molecular Devices Corporation) ([…]). When hemoglobin amount in non-stimulated state, i.e., without addition of any compound, was 100%, the production amount of hemoglobin induced by each compound was calculated (% of control).

Where a name gives a salt, the structure may show the parent alone.

Regarding `CC(=O)N1c2c(F)cccc2[C@H](Nc2ccccc2F)C[C@@H]1C` (relative stereo) [Compound 4, cis-1-acetyl-8-fluoro-4-[(2-fluorophenyl)amino]-2-methyl-1,2,3,4-tetrahydroquinoline], the activity at 3 µM in test [1] amounted to 163%. In test [2], the activity at 6 µM was 92%.

As to `C[C@H]1C[C@@H](Nc2ccc(F)cc2)c2cc(F)ccc2N1C(=O)C1CCCCC1` (relative stereo) [Compound 6, cis-1-cyclohexanecarbonyl-6-fluoro-4-[(4-fluorophenyl)amino]-2-methyl-1,2,3,4-tetrahydroquinoline], the activity at 3 µM in test [1] was found to be 225%. Besides, in test [2], the activity at 6 µM came to 326%.

Consider `CC(=O)N1c2cc(C#N)ccc2[C@H](Nc2ccccc2)C[C@@H]1C` (relative stereo) [Compound 7, cis-1-acetyl-7-cyano-2-methyl-4-phenylamino-1,2,3,4-tetrahydroquinoline], for which the activity at 3 µM in test [1] came to 261%. Further, the activity at 6 µM in test [2] came to 260%.

As to `CC(=O)N1c2ccccc2[C@H](Nc2ccccc2F)C[C@@H]1C` (relative stereo) [Compound 22, cis-1-acetyl-4-[(2-fluorophenyl)amino]-2-methyl-1,2,3,4-tetrahydroquinoline], the activity at 3 µM in test [1] is 150%. Further, the activity at 6 µM in test [2] amounted to 383%.

`CC(=O)N1c2cc(Br)ccc2[C@H](Nc2ccccc2)C[C@@H]1C` (relative stereo) [Compound 23, cis-1-acetyl-7-bromo-2-methyl-4-phenylamino-1,2,3,4-tetrahydroquinoline]: the activity at 3 µM in test [1] was 135%. Besides, in test [2], the activity at 6 µM was 544%.

With `CC(=O)N1c2ccccc2[C@H](Oc2ccccc2)C[C@@H]1C` (relative stereo) [Compound 26, cis-1-acetyl-2-methyl-4-phenoxy-1,2,3,4-tetrahydroquinoline], the activity at 3 µM in test [1] amounted to 214%. In addition, the activity at 6 µM in test [2] was determined as 188%.

For `CC(=O)N1c2ccccc2[C@H](Oc2ccc(F)cc2)C[C@@H]1C` (relative stereo) [Compound 27, cis-1-acetyl-4-(4-fluorophenoxy)-2-methyl-1,2,3,4-tetrahydroquinoline], the activity at 3 µM in test [1] came to 292%. Moreover, the activity at 6 µM in test [2] was found to be 281%.

As for `CC(=O)N1c2ccccc2[C@H](Oc2cccc(F)c2)C[C@@H]1C` (relative stereo) [Compound 28, cis-1-acetyl-4-(3-fluorophenoxy)-2-methyl-1,2,3,4-tetrahydroquinoline], in test [1], the activity at 3 µM was found to be 167%. Also, the activity at 6 µM in test [2] came to 216%.

Take `CC(=O)N1c2ccccc2[C@H](Oc2ccccc2F)C[C@@H]1C` (relative stereo) [Compound 29, cis-1-acetyl-4-(2-fluorophenoxy)-2-methyl-1,2,3,4-tetrahydroquinoline]: the activity at 3 µM in test [1] stood at 305%. Further, in test [2], the activity at 6 µM was found to be 201%.

In the case of `CC(=O)N1c2ccccc2[C@H](Oc2ccc(F)cc2F)C[C@@H]1C` (relative stereo) [Compound 30, cis-1-acetyl-4-(2,4-difluorophenoxy)-2-methyl-1,2,3,4-tetrahydroquinoline], in test [1], the activity at 3 µM amounted to 339%. For the same compound, the activity at 6 µM in test [2] worked out at 136%.

Regarding `CC(=O)N1c2ccccc2[C@H](Oc2ccc(F)c(F)c2)C[C@@H]1C` (relative stereo) [Compound 31, cis-1-acetyl-4-(3,4-difluorophenoxy)-2-methyl-1,2,3,4-tetrahydroquinoline], in test [1], the activity at 3 µM was 302%. The activity at 6 µM in test [2] turned out to be 156%.

Turning to `CC(=O)N1c2ccc(C)cc2C(Nc2ccc(C)cc2)CC1C` (centres unmarked) [Compound 2, 1-acetyl-2,6-dimethyl-4-[(4-methylphenyl)amino]-1,2,3,4-tetrahydroquinoline], the activity at 3 µM in test [1] was found to be 167%.

With `CC(=O)N1c2ccccc2C(Nc2ccc(O)cc2)CC1C` (stereo not drawn) [Compound 24, cis-1-acetyl-4-[(4-hydroxyphenyl)amino]-2-methyl-1,2,3,4-tetrahydroquinoline.hydrochloride], the activity at 3 µM in test [1] turned out to be 117%.

`CC(=O)N1c2ccccc2C(Nc2ccc(-c3ccccc3)cc2)CC1C` (centres unmarked) [Compound 25, 1-acetyl-2-methyl-4-[(1,1′-biphenyl-4-yl)amino]-1,2,3,4-tetrahydroquinoline]: the activity at 3 µM in test [1] came to 242%.

For the compound `CC(=O)N1c2ccc(C(N)=O)cc2C(Nc2ccc(Cl)cc2)CC1C` (centres unmarked) [Compound 43, 1-acetyl-4-[(4-chlorophenyl)amino]-2-methyl-1,2,3,4-tetrahydroquinoline-6-carboxamide], the activity at 3 µM in test [1] stood at 452%.

With `CC(=O)N1c2ccccc2C(Nc2ccccc2C)CC1C` (centres unmarked) [Compound 49, 1-acetyl-4-[(2-methylphenyl)amino]-2-methyl-1,2,3,4-tetrahydroquinoline], the activity at 3 µM in test [1] turned out to be 271%.

In the case of `CC(=O)N1c2ccccc2C(Nc2cccc(C)c2)CC1C` (centres unmarked) [Compound 50, 1-acety1-4-[(3-methylphenyl)amino]-2-methyl-1,2,3,4-tetrahydroquinoline], the activity at 3 µM in test [1] was determined as 289%.

As to `CC(=O)N1c2ccccc2C(Nc2ccc(C)cc2)CC1C` (centres unmarked) [Compound 51, 1-acety1-4-[(4-methylphenyl)amino]-2-methyl-1,2,3,4-tetrahydroquinoline], the activity at 3 µM in test [1] was found to be 239%.

In the case of `CC(=O)N1c2ccccc2C(Nc2ccc(C(F)(F)F)cc2)CC1C` (centres unmarked) [Compound 52, 1-acetyl-2-methyl-4-[(4-trifluoromethylphenyl)amino]-1,2,3,4-tetrahydroquinoline], the activity at 3 µM in test [1] stood at 314%.

For the compound `CC(=O)N1c2ccccc2C(Oc2ccc(N3CCOCC3)cc2)CC1C` (centres unmarked) [Compound 55, 1-acetyl-4-(4-morpholinophenoxy)-2-methyl-1,2,3,4-tetrahydroquinoline], the activity at 3 µM in test [1] came to 134%.

On to `CCOC(=O)Cc1ccc(NC2CC(C)N(C(C)=O)c3ccccc32)cc1` (centres unmarked) [Compound 70, 1-acetyl-4-[(4-ethoxycarbonylmethylphenyl)amino]-2-methyl-1,2,3,4-tetrahydroquinoline], for which the activity at 3 µM in test [1] came to 165%.

`CC(=O)N1c2ccc(N3CCN(S(C)(=O)=O)CC3)cc2C(Nc2ccc(Cl)cc2)CC1C` (centres unmarked) [Compound 80, 1-acetyl-6-[(4-methanesulfonyl)piperazino]-4-[(4-chlorophenyl)amino]-2-methyl-1,2,3,4-tetrahydroquinoline]: in test [1], the activity at 3 µM amounted to 219%.

Regarding `CC(=O)N1c2ccc(N3CCN(C(C)C)CC3)cc2C(Nc2ccc(Cl)cc2)CC1C` (centres unmarked) [Compound 81, 1-acetyl-4-[(4-chlorophenyl)amino]-6-[(4-isopropyl)piperazino]-2-methyl-1,2,3,4-tetrahydroquinoline], the activity at 3 µM in test [1] worked out at 234%.

For `COC(=O)c1cc(NC2CC(C)N(C(C)=O)c3ccccc32)ccc1O` (centres unmarked) [Compound 108, 1-acetyl-4-[(4-hydroxy-3-methoxycarbonylphenyl)amino]-2-methyl-1,2,3,4-tetrahydroquinoline.hydrochloride], the activity at 6 µM in test [2] was 399%.

`CC(=O)N1c2ccc(N3CC(C)OC(C)C3)cc2C(Nc2ccc(NS(C)(=O)=O)cc2)CC1C` (stereo not drawn) [Compound 110, 1-acetyl-6-[cis-2,6-dimethylmorpholin-4-yl]-4-[(4-methanesulfonylaminophenyl)amino]-2-methyl-1,2,3,4-tetrahydroquinoline.2 hydrochloride]: in test [2], the activity at 6 µM was determined as 211%.

On to `CC(=O)N1c2ccc(C(=O)NN)cc2C(Nc2ccc(Cl)cc2)CC1C` (centres unmarked) [Compound 115, 1-acetyl-4-[(4-chlorophenyl)amino]-2-methyl-1,2,3,4-tetrahydroquinoline-6-carbohydrazide], for which the activity at 6 µM in test [2] was determined as 163%.

In the case of `CC(=O)N1c2ccc(C#N)cc2C(Nc2ccc(Cl)cc2)CC1C` (centres unmarked) [Compound 117, 1-acetyl-4-[(4-chlorophenyl)amino]-6-cyano-2-methyl-1,2,3,4-tetrahydroquinoline], in test [1], the activity at 3 µM stood at 204%.

As to `CONC(=O)c1ccc2c(c1)C(Nc1ccc(Cl)cc1)CC(C)N2C(C)=O` (centres unmarked) [Compound 118, 1-acetyl-4-[(4-chlorophenyl)amino]-N-methoxy-2-methyl-1,2,3,4-tetrahydroquinoline-6-carboxamide.hydrochloride], in test [1], the activity at 3 µM is 138%.

Regarding `CC(=O)N1c2ccc(-c3nc(=O)o[nH]3)cc2C(Nc2ccc(Cl)cc2)CC1C` (centres unmarked) [Compound 120, 1-acetyl-4-[(4-chlorophenyl)amino]-2-methyl-6-[1,2,4-oxadiazol-5(2H)-on-3-yl]-1,2,3,4-tetrahydroquinoline], the activity at 6 µM in test [2] was determined as 188%.

`CC(=O)N1c2ccc(F)cc2C(Nc2ccc(CC(=O)O)cc2)CC1C` (centres unmarked) [Compound 123, 1-acetyl-4-[(4-carboxymethylphenyl)amino]-6-fluoro-2-methyl-1,2,3,4-tetrahydroquinoline]: in test [1], the activity at 3 µM is 142%.
